Laboratory results from PMC11061832, “Antiviral Rotenoids and Isoflavones Isolated from Millettiaoblata ssp. teitensis” (Journal of Natural Products, 2024).
“Also recorded” adds a separate entry of the source.

Tests used:
RSV = RSV plaque reduction assay in HEp-2 cells; conditions: for SI (CC50/IC50): CC50 HEp-2 / anti-RSV IC50; for IC50: human respiratory syncytial virus, HEp-2, 72 h, read-out: anti-RSV activity IC50
Procedure: (§1) The extracts and the isolated compounds were tested for antiviral activity against RSV by the viral plaque reduction assay in cultures of HEp-2 cells (Table 3, Supporting Information). A tetrazolium-based cytotoxicity assay on HEp-2 cells was also performed to exclude that the anti-RSV activity was a result of general cytotoxicity. The cytotoxicity assay was complemented by microscopy observation of the compound- and extract-treated cells to detect possible cytostatic activity, such as poor cell growth and/or altered cell shape that may affect antiviral activity. […] At this stage, it is difficult to assess whether the cytostatic activity of these specific compounds contributed to the protection of cells against virus infection, and accordingly the specificity of anti-RSV action of 9 and 13 requires further investigation. An attempt was made to address this issue by testing cytotoxic activities of the most promising compounds in human embryonic lung fibroblasts (HELFs), i.e., primary cells derived from lung interstitium.
Human adenocarcinoma cells of uterine cervix (HeLa) were grown in Eagle’s minimum essential medium supplemented with 5% fetal calf serum and antibiotics. HELFs were grown in Eagle’s minimum essential medium supplemented with 5% fetal calf serum, L-glutamine, and antibiotics. […] The RSV stock was prepared and stored as described previously by Lundin et al.[50]
The RSV plaque reduction assay was performed as described previously[27],[51] with some modifications. […] Following 15 min of incubation at 37 °C in a humidified atmosphere comprising 5% CO2 (incubator), the cells were inoculated with 50–100 plaque-forming units of RSV A2. After incubation of the virus–compound mixture with cells for 2.5 h in the CO2 incubator, the inoculum was removed and 750 μL of 1% methylcellulose solution in DMEM-M comprising the same concentration of test compound/extract was added and left for a further 3 days in the CO2 incubator. The cells were stained with a 1% solution of crystal violet, and the viral plaques were counted under a microscope.

in vitro = conditions: human
Procedure: as §1
(§2) HEp-2 cells were cultivated in Dulbecco’s modified Eagle’s medium (DMEM) supplemented with 8% fetal calf serum and 292 μg/mL of L-glutamine. Human adenocarcinoma cells of uterine cervix (HeLa) were grown in Eagle’s minimum essential medium supplemented with 5% fetal calf serum and antibiotics. HELFs were grown in Eagle’s minimum essential medium supplemented with 5% fetal calf serum, L-glutamine, and antibiotics. The A2 strain of RSV (ATCC VR-1540) was used. The RSV stock was prepared and stored as described previously by Lundin et al.[50] In some experiments, strain HGP of HRV-2 (ATCC, VR-482) was used.
(§3) The tetrazolium-based cytotoxicity assay using a CellTiter 96 Aqueous One solution reagent (Promega) was performed for the test extracts and isolated compounds in HEp-2, HELFs, and HeLa cells as described previously.[50]
(§4) Figure S130. Cell viability in presence of the crude extracts of leaves and root heart of Milletia oblata ssp teitensis. The HEp-2 cells were incubated for 3 days at 37 °C with specific concentration of test extract. After addition of the tetrazolium (MTS)-based reagent the absorbance was recorded at 490 nm. The results are expressed as a percentage of absorbance developed in extract treated cells relative to DMSO treated controls. […]

[1] = system: human embryonic lung fibroblasts (HELFs); assay: Tetrazolium-based cytotoxicity assay in human embryonic lung fibroblasts; conditions: primary lung fibroblasts
Procedure: as §1, §2, §3

[2] = as above; conditions: human
Procedure: as §1, §2, §3

[3] = Tetrazolium-based cytotoxicity assay in HeLa cells; type: cell-based; conditions: human, 34 °C
Procedure: Figure S133. Anti-HRV-2 (IC50) of 3 of Milletia oblata ssp teitensis in HeLa cells. In the cell protection against HRV assay, the cells were incubated in the presence of specific concentrations of test compound for 3 h, then inoculated with HRV and incubated for further 3 days at 34°C. Two separate experiments were performed, and the cell protection against HRV-2 was calculated according to formula described in the Method section. In the cell viability assay, the cells were incubated with test compound for 3 days at 34°C. For further explanations see legend to Figure S130.
Table S1. Anti-RSV activity, cytotoxicity for HEp-2 cells, and selectivity indices (SI) of Milletia oblata extracts. For explanations see legend to Table 3.
Compound/extract Anti-RSV activity Cytotoxicity SI […]
Root wood extract 3.4 66 PCS (8 µg/mL) 19.4
(1 picture or pasted object on this page, not shown here)

HRV-2 = assay: Anti-HRV-2 tetrazolium-based cell protection assay in HeLa cells; design: species or system human rhinovirus 2 (strain HGP)
HEp-2 cells [4] = assay: Tetrazolium-based cytotoxicity assay in HEp-2 cells; conditions: read-out: cytotoxicity CC50; HEp-2 cells, tetrazolium-based assay
Procedure: as §1, §2, §3, §4

HEp-2 cells [5] = assay: Microscopic recording of cytostatic activity in compound-treated HEp-2 cells; conditions: microscopy, PCP poor cell proliferation, ACS altered cell shape, PCS poor cell staining, concentration(s) at which seen in brackets
Procedure: as §1

[6] = cytotoxicity CC50, HEp-2 cells, tetrazolium-based assay
[7] = HEp-2 cells, cytotoxicity CC50, HEp-2 cells, tetrazolium-based assay
[8] = human embryonic lung fibroblasts (HELFs), primary cells

Row | Compound | SI (CC50/IC50) (RSV) | IC50 (RSV) [µM] | CC50 (in vitro; [6]) [µM] | CC50 at 3 days (in vitro; [7]) [µM] | cytotoxicity: cytostatic activity (HEp-2 cells [5]) | also measured
1 | COc1ccc2c(c1)O[C@@H]1COc3c(cc(OC)c4c3OCO4)[C@@H]1C2=O [Compound 1, (6aS,12aS)-2,9-dimethoxy-3,4-methylenedioxyrotenoid] | 1.0 | > 100 | > 100 | – | – | –
2 | COc1cc2c(cc1OC)C(=O)[C@@]1(O)c3cc4c(cc3OC[C@H]1O2)OCO4 [Compound 2, (6aR,12aR)-9,10-dimethoxy-2,3-methylenedioxy-12a-hydroxyrotenoid] | 1.0 | > 100 | > 100 | – | – | –
3 | COc1ccc2c(=O)c3c(oc2c1)COc1cc2c(cc1-3)OCO2 [Compound 3, 9-methoxy-2,3-methylenedioxy-6a-2a-dehydrorotenoid] | 4.1 | 22 | – | 90 | – | cytotoxicity (in words) [1]: low cytotoxicity; CC50 [2, 8]: > 100 µM; CC50 at 3 days [3]: 48 µM; SI (HRV-2; CC50 HeLa / anti-HRV-2 IC50): 11.4; IC50 (HRV-2; Rhinovirus A, HRV2, 72 h, protection of HeLa cells against HRV-2 infection, 3 days, 34 °C): 4.2 µM
4 | COc1c(O[C@@H]2O[C@H](CO[C@H]3O[C@H](C)[C@@H](O)[C@H](O)[C@@H]3O)[C@@H](O[C@@H]3O[C@H](CO[C@H]4O[C@H](C)[C@@H](O)[C@H](O)[C@@H]4O)[C@@H](O)[C@H](O)[C@H]3O)[C@H](O)[C@H]2O)cc2c(=O)c(-c3ccc4c(c3)OCO4)coc2c1OC [Compound 4, isoplatycarpanetin-6-O-β-glucosyl-(7″→1‴′)-α-rhamnosyl-(4″→1‴)-β-glucosyl-(7‴→1‴′)-α-rhamnoside] | 1.0 | > 100 | – | > 100 | – | –
5 | COc1ccc2c(c1)O[C@@H]1COc3cc4c(cc3[C@@H]1C2=O)OCO4 [Compound 5, oblarotenoid C] | >1.9 | 53 | > 100 | – | – | –
6 | COc1ccc2c(c1)O[C@@H]1COc3cc4c(cc3[C@]1(O)C2=O)OCO4 [Compound 6, oblarotenoid A] | 35.7 | 1.4 | > 26.5 | – | PCS (20.0 μM) | CC50 (HEp-2 cells [4]): 50 µM; CC50 [2]: 1.3 µM
7 | COc1ccc2c(c1)O[C@@H]1COc3c(cc(OC)c4c3OCO4)[C@]1(O)C2=O [Compound 7, oblarotenoid D] | 3.8 | 1.8 | 6.7 | – | – | –
8 | COc1ccc2c(c1)O[C@@H]1COc3cc(OC)c(OC)cc3[C@]1(O)C2=O [Compound 8, 12a-hydroxymunduserone] | 28.0 | 1.5 | > 26.5 | – | PCS (20.0 μM) | CC50 (HEp-2 cells [4]): 42 µM; CC50 [2]: 4.8 µM
9 | COc1cc2c(cc1OC)[C@]1(O)C(=O)c3ccc4c(c3O[C@@H]1CO2)C=CC(C)(C)O4 [Compound 9, tephrosin] | 15.6 | 0.8 | – | – | cytostatic activity at concentrations close to their IC50 values; also recorded: PCS (0.8 and 4.0 μM) | CC50 at 3 days (in vitro): 12.5 µM
10 | COc1cc2c(cc1OC)[C@@H]1C(=O)c3ccc4c(c3O[C@@H]1CO2)C=CC(C)(C)O4 [Compound 10, deguelin] | – | 0.4 | > 26.5 | – | PCS (4.0 μM) | CC50 (HEp-2 cells [4]): 26.5 µM; CC50 [2]: 0.3 µM
11 | COc1cc2c(cc1-c1coc3c4c(c(OC)cc3c1=O)OC(C)(C)C=C4)OCO2 [Compound 11, ichthynone] | 11.4 | 8 | – | – | PCS (20.0 μM) | cytotoxicity (in words) [1]: low cytotoxicity; CC50 [2, 8]: > 100 µM
12 | COc1ccc2c(=O)c(-c3cc(OC)c4c(c3OC)OCO4)coc2c1 [Compound 12, 7,2′,5′-trimethoxy-3′,4′-methylenedioxyisoflavone] | 1.0 | > 100 | – | > 100 | – | –
13 | CC(C)=CCOc1ccc(-c2coc3c4c(ccc3c2=O)OC(C)(C)C=C4)cc1 [Compound 13, isoerythrin-A-4′-prenyl ether] | >47.6 | 2.1 | – | > 100 | cytostatic activity at concentrations close to their IC50 values; also recorded: PCS (4.0, 20.0, and 100.0 μM) | CC50 [2, 8]: 9 µM
14 | CC(C)=CCOc1ccc(-c2coc3c4c(cc(O)c3c2=O)OC(C)(C)C=C4)cc1 [Compound 14, 4′-prenyloxyderrone] | >10 | 10 | – | – | PCS (100.0 μM) | cytotoxicity (in words) [1]: low cytotoxicity; CC50 [2, 8]: > 100 µM
15 | COc1ccc2c(=O)c(-c3cc4c(cc3OC)OCO4)coc2c1 [Compound 15, aglycuneatin methyl ether] | 6.5 | 10 | – | 65 | PCS (20.0 μM) | CC50 [2, 8]: 47.1 µM
16 | CC1(C)C=Cc2c(ccc3c(=O)c(-c4ccc5c(c4)OCO5)coc23)O1 [Compound 16, calopogonium isoflavone B] | 1.0 | > 100 | – | > 100 | – | –
17 | COc1cc2c(cc1-c1coc3cc(O)ccc3c1=O)OCO2 [Compound 17, maximaisoflavone G] | 1.0 | > 100 | – | > 100 | – | –
18 | CC1(C)C=Cc2c(ccc(C(=O)/C=C/c3ccc(O)cc3)c2O)O1 [Compound 19, isobavachromene] | <2.5 | > 0.8 | – | 2 | – | –
19 | NC(=O)c1ncn([C@@H]2O[C@H](CO)[C@@H](O)[C@H]2O)n1 [ribavirin, reference compound] | – | 10.6 | – | – | – | CC50 at 3 days (in vitro; cytotoxicity CC50): > 100 µM
